Results: patent US20250081967A1, “PESTICIDALLY ACTIVE HETEROCYCLIC DERIVATIVES WITH SULFOXIMINE CONTAINING SUBSTITUENTS” (SYNGENTA CROP PROTECTION AG, priority 2021, published 2025)

Legend:
Assay type in all cases: in vivo
[1] = system: Myzus persicae; assay: Activity against Myzus persicae (green peach aphid), systemic activity, pea seedlings; settings: for mortality at 24 ppm: Myzus persicae
Experimental: Example B5: Activity Against Myzus persicae (Green Peach Aphid) Systemic Activity
Roots of pea seedlings infested with an aphid population of mixed ages were placed directly in the aqueous test solutions prepared from 10′000 DMSO stock solutions. The samples were assessed for mortality 6 days after placing seedlings in test solutions.

[2] = system: Bemisia tabaci; assay: Activity against Bemisia tabaci (cotton white fly), cotton leaf discs; settings: for mortality at 200 ppm / mortality at 12.5 ppm: foliar; for mortality at 200 ppm: 144 h, application rate 200 ppm, adult white flies, 6 days after incubation
Experimental: Example B6: Activity Against Bemisia tabaci (Cotton White Fly)
Cotton leaf discs were placed on agar in 24-well microtiter plates and sprayed with aqueous test solutions prepared from 10′000 ppm DMSO stock solutions. After drying the leaf discs were infested with adult white flies. The samples were checked for mortality 6 days after incubation.

[3] = system: Diabrotica balteata; assay: Activity against Diabrotica balteata (corn root worm), maize sprouts; settings: for percent effect (mortality or growth inhibition) at 200 ppm: 96 h, application rate 200 ppm, L2 larvae, 4 days after infestation, read-out: effect in at least one of the two categories (mortality or growth inhibition); for mortality at 50 ppm / Mortality (%): concentration 50 ppm
Experimental: Example B3: Activity Against Diabrotica Balteata (Corn Root Worm)
Maize sprouts placed onto an agar layer in 24-well microtiter plates were treated with aqueous test solutions prepared from 10′000 ppm DMSO stock solutions by spraying. After drying, the plates were infested with L2 larvae (6 to 10 per well). The samples were assessed for mortality and growth inhibition in comparison to untreated samples 4 days after infestation.

[4] = system: Plutella xylostella; assay: Activity against Plutella xylostella (diamond back moth), artificial diet, eggs; settings: 192 h, application rate 200 ppm, 8 days after infestation, read-out: effect in at least one of the two categories (mortality or growth inhibition)
Experimental: Example B9: Activity Against Plutella xylostella (Diamond Back Moth)
24-well microtiter plates with artificial diet were treated with aqueous test solutions prepared from 10′000 ppm DMSO stock solutions by pipetting. After drying, Plutella eggs were pipetted through a plastic stencil onto a gel blotting paper and the plate was closed with it. The samples were assessed for mortality and growth inhibition in comparison to untreated samples 8 days after infestation.

[5] = system: Myzus persicae; assay: Activity against Myzus persicae (green peach aphid), feeding/contact activity, sunflower leaf discs; settings: Myzus persicae, foliar; for mortality at 200 ppm: 144 h, application rate 200 ppm, feeding/contact, 6 days after infestation
Experimental: Example B4: Activity Against Myzus persicae (Green Peach Aphid) Feeding/Contact Activity
Sunflower leaf discs were placed on agar in a 24-well microtiter plate and sprayed with aqueous test solutions prepared from 10′000 ppm DMSO stock solutions. After drying, the leaf discs were infested with an aphid population of mixed ages. The samples were assessed for mortality 6 days after infestation.

[6] = system: Euschistus heros; assay: Activity against Euschistus heros (neotropical brown stink bug), soybean leaf; settings: 120 h, application rate 200 ppm, N-2 nymphs, 5 days after infestation, read-out: effect in at least one of the two categories (mortality or growth inhibition)
Experimental: Example B7: Activity Against Euschistus heros (Neotropical Brown Stink Bug)
Soybean leaf on agar in 24-well microtiter plates were sprayed with aqueous test solutions prepared from 10′000 ppm DMSO stock solutions. After drying the leaf were infested with N-2 nymphs. The samples were assessed for mortality and growth inhibition in comparison to untreated samples 5 days after infestation.

[7] = system: Spodoptera littoralis; assay: Activity against Spodoptera littoralis (Egyptian cotton leaf worm), cotton leaf discs; settings: foliar, 72 h, application rate 200 ppm, L1 larvae, 3 days after infestation, read-out: control (mortality, anti-feeding effect or growth inhibition)
Experimental: Example B1: Activity Against Spodoptera littoralis (Egyptian Cotton Leaf Worm)
Cotton leaf discs were placed onto agar in 24-well microtiter plates and sprayed with aqueous test solutions prepared from 10′000 ppm DMSO stock solutions. After drying the leaf discs were infested with five L1 larvae. The samples were assessed for mortality, anti-feeding effect, and growth inhibition in comparison to untreated samples 3 days after infestation. Control of Spodoptera littoralis by a test sample is given when at least one of the categories mortality, anti-feedant effect, and growth inhibition is higher than the untreated sample.

[8] = 144 h, test rate 24 ppm, systemic, 6 days after placing seedlings in test solutions
[9] = Myzus persicae (systemic), concentration 24 ppm

Row | SMILES | mortality at 24 ppm [1, 8] [%] | mortality at 200 ppm [2] [%] | percent effect (mortality or growth inhibition) at 200 ppm [3] [%] | mortality at 50 ppm [3] [%] | percent effect (mortality or growth inhibition) at 200 ppm [4] [%] | mortality at 200 ppm [5] [%] | mortality at 12.5 ppm ([5]; Myzus persicae (feeding/contact), concentration 12.5 ppm) [%] | mortality at 12.5 ppm ([2]; concentration 12.5 ppm) [%] | percent effect (mortality or growth inhibition) at 200 ppm [6] [%] | mortality at 24 ppm [1, 9] [%] | percent control (mortality, anti-feedant effect or growth inhibition) at 200 ppm [7] [%] | mortality at 12.5 ppm ([3]; concentration 12.5 ppm) [%] | mortality at 3.125 ppm ([5]; Myzus persicae (feeding/contact), concentration 3.125 ppm) [%] | Mortality (%) ([1]; Myzus persicae (systemic), concentration 6 ppm) | Mortality (%) [3] [%] | Mortality (%) ([2]; concentration 12.5 ppm) | mortality at 0.781 ppm ([5]; Myzus persicae (feeding/contact), concentration 0.781 ppm) [%]
1 | CCS(=N)(=O)c1cc(OC(C)(C)C#N)cnc1-c1nc2cc(C(F)(F)F)ncc2n1C (single isomer, unassigned) [Compound P13-A, 2-[[5-(ethylsulfonimidoyl)-6-[3-methyl-6-(trifluoromethyl)imidazo[4,5-c]pyridin-2-yl]-3-pyridyl]oxy]-2-methyl-propanenitrile] | ≥ 80 | ≥ 80 | ≥ 80 | 80 | ≥ 80 | ≥ 80 | 80 | – | – | – | – | – | – | – | – | – | –
2 | CCS(=N)(=O)c1cc(C2(C#N)CC2)ccc1-c1nc2cc(C(F)(F)F)ncc2n1C (single isomer, unassigned) [Compound P18-B, 1-[3-(ethylsulfonimidoyl)-4-[3-methyl-6-(trifluoromethyl)imidazo[4,5-c]pyridin-2-yl]phenyl]cyclopropanecarbonitrile] | – | – | – | 100 | – | – | – | 80 | ≥ 80 | – | – | – | – | – | – | – | –
3 | CCS(=N)(=O)c1cc(OC(C)(C)C#N)c(C)nc1-c1nc2cc(C(F)(F)F)ncc2n1C (single isomer, unassigned) [Compound P17-A, 2-[[5-(ethylsulfonimidoyl)-2-methyl-6-[3-methyl-6-(trifluoromethyl)imidazo[4,5-c]pyridin-2-yl]-3-pyridyl]oxy]-2-methyl-propanenitrile] | ≥ 80 | ≥ 80 | ≥ 80 | – | ≥ 80 | ≥ 80 | – | – | – | – | – | – | – | – | – | – | –
4 | CCS(=N)(=O)c1cc(C2(C#N)CC2)cnc1-c1nc2cc(C(F)(F)F)nnc2n1C (racemic) [Compound P2, 1-[5-(ethylsulfonimidoyl)-6-[7-methyl-3-(trifluoromethyl)imidazo[4,5-c]pyridazin-6-yl]-3-pyridyl]cyclopropanecarbonitrile] | ≥ 80 | ≥ 80 | ≥ 80 | – | – | ≥ 80 | – | – | ≥ 80 | – | – | – | – | – | – | – | –
5 | CC[S@@](=N)(=O)c1cc(OC(C)(C)C#N)cnc1-c1nc2cc(C(F)(F)F)cnc2n1C [Compound P9-A, (R)-2-[[5-(ethylsulfonimidoyl)-6-[3-methyl-6-(trifluoromethyl)imidazo[4,5-b]pyridin-2-yl]-3-pyridyl]oxy]-2-methyl-propanenitrile] | ≥ 80 | ≥ 80 | ≥ 80 | 80 | ≥ 80 | ≥ 80 | – | – | – | 100 | ≥ 80 | – | – | – | – | – | –
6 | CCS(=N)(=O)c1cc(C2(C#N)CC2)ccc1-c1nc2cc(C(F)(F)F)ncc2n1C (racemic) [Compound P18, 1-[3-(ethylsulfonimidoyl)-4-[3-methyl-6-(trifluoromethyl)imidazo[4,5-c]pyridin-2-yl]phenyl]cyclopropanecarbonitrile] | ≥ 80 | ≥ 80 | ≥ 80 | – | – | ≥ 80 | – | – | ≥ 80 | – | – | – | – | – | – | – | –
7 | CCS(=N)(=O)c1cc(OC(C)(C)C#N)cnc1-c1nc2cc(C(F)(F)F)nnc2n1C (single isomer, unassigned) [Compound P15-A, 2-[[5-(ethylsulfonimidoyl)-6-[7-methyl-3-(trifluoromethyl)imidazo[4,5-c]pyridazin-6-yl]-3-pyridyl]oxy]-2-methyl-propanenitrile] | ≥ 80 | ≥ 80 | ≥ 80 | – | ≥ 80 | ≥ 80 | – | – | – | – | ≥ 80 | 80 | – | – | – | – | –
8 | CCS(=N)(=O)c1cc(C2(C#N)CC2)cnc1-c1nc2cc(C(F)(F)F)cnc2n1C (single isomer, unassigned) [Compound P16-A, 1-[5-(ethylsulfonimidoyl)-6-[3-methyl-6-(trifluoromethyl)imidazo[4,5-b]pyridin-2-yl]-3-pyridyl]cyclopropanecarbonitrile] | ≥ 80 | ≥ 80 | ≥ 80 | – | ≥ 80 | ≥ 80 | – | 100 | – | – | – | – | 100 | – | – | – | –
9 | CCS(=N)(=O)c1cc(C2(C#N)CC2)ccc1-c1nc2cc(C(F)(F)F)cnc2n1C (single isomer, unassigned) [Compound P6-B, 1-[3-(ethylsulfonimidoyl)-4-[3-methyl-6-(trifluoromethyl)imidazo[4,5-b]pyridin-2-yl]phenyl]cyclopropanecarbonitrile] | – | – | – | – | ≥ 80 | – | – | – | – | – | ≥ 80 | – | – | 100 | 80 | – | –
10 | CCS(=N)(=O)c1cc(C2(C#N)CC2)ccc1-c1nc2cc(C(F)(F)F)ncc2n1C (single isomer, unassigned) [Compound P18-A, 1-[3-(ethylsulfonimidoyl)-4-[3-methyl-6-(trifluoromethyl)imidazo[4,5-c]pyridin-2-yl]phenyl]cyclopropanecarbonitrile] | ≥ 80 | ≥ 80 | ≥ 80 | – | ≥ 80 | ≥ 80 | – | – | – | – | – | – | – | – | 100 | 100 | –
11 | CCS(=N)(=O)c1cc(C2(C#N)CC2)cnc1-c1nc2cc(C(F)(F)F)ncc2n1C (single isomer, unassigned) [Compound P10-A, 1-[5-(ethylsulfonimidoyl)-6-[3-methyl-6-(trifluoromethyl)imidazo[4,5-c]pyridin-2-yl]-3-pyridyl]cyclopropanecarbonitrile] | ≥ 80 | ≥ 80 | ≥ 80 | – | ≥ 80 | ≥ 80 | – | 80 | – | – | – | – | – | – | – | – | 80
12 | CC[S@](=N)(=O)c1cc(OC(C)(C)C#N)cnc1-c1nc2cc(C(F)(F)F)cnc2n1C [Compound P9-B, (S)-2-[[5-(ethylsulfonimidoyl)-6-[3-methyl-6-(trifluoromethyl)imidazo[4,5-b]pyridin-2-yl]-3-pyridyl]oxy]-2-methyl-propanenitrile] | ≥ 80 | ≥ 80 | ≥ 80 | 100 | ≥ 80 | ≥ 80 | – | – | – | 100 | ≥ 80 | – | – | – | – | – | –
13 | CCS(=N)(=O)c1cc(C(C)(C)C#N)cnc1-c1nc2cc(C(F)(F)F)cnc2n1C (single isomer, unassigned) [Compound P12-A, 2-[5-(ethylsulfonimidoyl)-6-[3-methyl-6-(trifluoromethyl)imidazo[4,5-b]pyridin-2-yl]-3-pyridyl]-2-methyl-propanenitrile] | ≥ 80 | ≥ 80 | ≥ 80 | – | ≥ 80 | ≥ 80 | – | – | – | – | – | – | – | – | – | – | –
